According to paper PMC11150392, “Structure and mechanism of the K^+/H^+ exchanger KefC” (Nature Communications, 2024):

Target: T1, KefC WT* (Escherichia coli, UniProt P03819)
T1 construct: lacks final 60 C-terminal residues (WT*); C-terminal TEV-GFP-His8, cleaved for cryo-EM, kept in FSEC stability assays; expressed in E. coli Lemo21(DE3)-type host; homodimer in DDM/GDN
T1 sequence (P03819 1-560): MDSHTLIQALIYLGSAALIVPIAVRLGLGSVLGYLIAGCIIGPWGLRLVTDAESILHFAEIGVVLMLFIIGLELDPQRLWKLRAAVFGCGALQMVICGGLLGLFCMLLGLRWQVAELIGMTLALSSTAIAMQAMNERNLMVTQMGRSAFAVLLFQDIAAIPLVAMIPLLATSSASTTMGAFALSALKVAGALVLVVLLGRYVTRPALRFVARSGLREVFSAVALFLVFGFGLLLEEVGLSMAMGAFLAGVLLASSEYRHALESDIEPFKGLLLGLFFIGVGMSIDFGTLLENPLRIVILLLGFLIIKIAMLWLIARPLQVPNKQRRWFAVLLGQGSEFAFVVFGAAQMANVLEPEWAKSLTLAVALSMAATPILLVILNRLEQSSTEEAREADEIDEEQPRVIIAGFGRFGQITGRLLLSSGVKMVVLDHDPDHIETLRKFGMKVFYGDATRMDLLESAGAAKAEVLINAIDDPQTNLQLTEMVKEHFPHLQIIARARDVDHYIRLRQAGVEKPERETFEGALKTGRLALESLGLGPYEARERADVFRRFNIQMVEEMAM
Assay: FSEC thermostabilization of purified GFP fusion
Type: binding
Settings: 40 °C 10 min, 1% beta-OG, DDM, 1 mM AMP, pH 7.5; dimer interface; Supplementary Fig. 5b; PG modelled (PGW), map density not unambiguous

CCCCCCCC/C=C\CCCCCCCC(=O)OC[C@H](COP(=O)(O)OCC(O)CO)OC(=O)CCCCCCC/C=C\CCCCCCCC (stereo partly shown) [DOPG]
FSEC thermostabilization of purified GFP fusion: The clearest thermostabilization of the KefC homodimer was observed upon addition of PG lipids
